Assay results reported in patent US7361686B2, “Compounds for the treatment of metabolic disorders” (Wellstat Therapeutics Corporation, priority 2003, dated 2008).

System: db/db mice
Assay: Antidiabetic effects in db/db mice (serum chemistry after 4 weeks of daily oral dosing)
Assay type: in vivo
Settings: for blood glucose, effect in words: versus vehicle; for Triglycerides ± SEM (serum) / Glucose ± SEM (serum glucose) / Free Fatty Acids ± SEM (serum): male obese db/db mice, 100 mg/kg daily oral, treatment for 4 weeks, mean ± SEM; for Triglycerides ± SEM (serum): vehicle 621 ± 54, lean 96.4 ± 6.4; for Glucose ± SEM (serum glucose): vehicle 747 ± 19, lean control 193 ± 11; for Free Fatty Acids ± SEM (serum): vehicle 2415 ± 134, lean 1637 ± 105
Excerpt: Db/db mice have a defect in leptin signaling, leading to hyperphagia, obesity and diabetes. Moreover, unlike ob/ob mice on a C57BL/6J background, db/db mice on a C57BLKS background undergo failure of their insulin-producing pancreatic islet cells, resulting in progression from hyperinsulinemia (associated with peripheral insulin resistance) to hypoinsulinemic diabetes.
Male obese (db/db homozygote) C57B/Ksola mice approximately 8 weeks of age, were obtained from Jackson Labs (Bar Harbor, Me.) and randomly assigned into groups of 5-7 animals such that the body weights (40-45 g) and serum glucose levels (≧300 mg/dl in fed state) were similar between groups; male lean (db/+heterozygote) mice served as cohort controls. A minimum of 7 days was allowed for adaptation after arrival. All animals were maintained under controlled temperature (23° C.), relative humidity (50±5%) and light (7:00-19:00), and allowed free access to standard chow (Formulab Diet 5008, Quality Lab Products, Elkridge, Md.) and water.
Treatment cohorts were given daily oral doses of vehicle, compound CO (100 mg/kg), or Compound CP (100 mg/kg) for 4 weeks. At the end of the treatment period 100 μl of venous blood was withdrawn in a heparinized capillary tube from the retro-orbital sinus for serum chemistry analysis.

[1] = db/db mice, after 4 weeks of daily oral dosing, 100 mg/kg
[2] = db/db mice, after 4 weeks of daily oral dosing, 100 mg/kg, versus vehicle-treated db/db mice

Structure (SMILES) | blood glucose, effect in words [1] | serum triglycerides, effect in words [2] | Triglycerides ± SEM (serum) [mg/dL] | Glucose ± SEM (serum glucose) [mg/dL] | Free Fatty Acids ± SEM (serum) [µM] | serum free fatty acids, effect in words [2]
CCOC(=O)CC/C=C/c1cccc(OCc2c(C)cccc2C)c1 [Cpd. CO, 5-[3-(2,6-Dimethylbenzyloxy)-phenyl]-pent-4-enoic acid ethyl ester] | significant reduction | reduced | 320 ± 30 | 651 ± 36 | 2689 ± 70 | 
CCOC(=O)CCC/C=C/c1cccc(OCc2c(C)cccc2C)c1 [Cpd. CP, 6-[3-(2,6-Dimethylbenzyloxy)-phenyl]-hex-5-enoic acid ethyl ester] | significant reduction | reduced | 150 ± 34 | 404 ± 101 | 1765 ± 39 | reduced
